Article PMC9511441, “Semisynthetic teicoplanin derivatives with dual antimicrobial activity against SARS-CoV-2 and multiresistant bacteria” (Scientific Reports, 2022)
Converted amounts (≈) assume the structure as drawn. Like-named read-outs stand apart in the source and are kept apart here.

Experiments:
E. faecium = assay: microbe, parasite or virus in culture; assay type: cell-based; details: Enterococcus faecium
S. epidermidis = assay: microbe, parasite or virus in culture; assay type: cell-based; details: Staphylococcus epidermidis
[1] = system: a panel of bacteria including MRSA; parameters: method as in PMID 32652783; details: earlier work; cited from earlier work
HCoV-229E = details: earlier work; read-out: EC50 against human coronavirus 229E (HCoV-229E); cited from earlier work
VeroE6 cells = assay: Cytotoxicity in mock-infected VeroE6 cells (XTT); assay type: cell-based, African green monkey; details: mock-infected Vero E6 cells, three days, XTT
E. faecalis = assay: MIC, broth microdilution; assay type: cell-based; details: Enterococcus faecalis
S. aureus = assay: MIC, broth microdilution; assay type: cell-based; details: Staphylococcus aureus
S.pyogenes = assay: MIC, broth microdilution; assay type: cell-based; details: Streptococcus pyogenes
S. haemolyticus = assay: MIC, broth microdilution; assay type: cell-based; details: Staphylococcus haemolyticus
[2] = target: T1, human recombinant cathepsin L (Homo sapiens, UniProt P07711); assay: biochemical; assay type: biochemical; details: read-out: Cathepsin L IC50; pH 5.5, Z-Phe-Arg-AMC substrate
T1 construct: made in house; host or cells: Escherichia coli
Experimental: Cathepsin L inhibition was assessed as reported. Briefly, human recombinant cathepsin L was expressed in Escherichia coli[33]. Enzymatic activity was determined in 100 mM acetate buffer (pH 5.5) containing 0.1% PEG 8000, 5 mM cysteine and 1.5 mM EDTA. The enzyme was first activated in assay buffer for 5 min at 37 °C, after which it was added to the wells of a black microplate containing the Z-Phe-Arg-AMC substrate (Bachem) and compounds. Formation of the fluorescent cleavage product was monitored for 50 min at 37 °C, using a Tecan Infinit M1000 spectrofluorimeter set at 460 nm emission and 380 nm excitation wavelength. All assay mixtures contained 5% (v/v) DMSO and 0.01% Triton X-100 to prevent false-positive inhibition due to formation of compound aggregates. All measurements were performed in triplicate and repeated twice. The relative inhibition was calculated using the equation: Relative inhibition (%) = 100(1 − vi/vo), where vi and vo designate the reaction velocities in the presence and absence of inhibitor, respectively. IC50 values were determined from nine data points at different inhibitor concentrations.

HEL cells = assay: Cytotoxicity in mock-infected HEL cells (MTS); assay type: cell-based, human; details: mock-infected HEL cells, MTS, mean of 2–3 tests

T1 sequence (P07711 114-333): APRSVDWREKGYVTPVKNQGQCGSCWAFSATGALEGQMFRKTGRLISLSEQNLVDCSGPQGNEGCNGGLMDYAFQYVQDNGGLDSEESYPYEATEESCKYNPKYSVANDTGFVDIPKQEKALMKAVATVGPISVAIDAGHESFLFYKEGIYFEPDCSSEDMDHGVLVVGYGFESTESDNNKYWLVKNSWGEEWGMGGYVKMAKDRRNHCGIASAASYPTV

CC(=O)N[C@H]1[C@H](O[C@@H]2c3ccc(c(Cl)c3)Oc3cc4cc(c3O)Oc3ccc(cc3Cl)C[C@H]3NC(=O)[C@H](n5cc(COCCOCCCC(F)(F)C(F)(F)C(F)(F)C(F)(F)F)nn5)c5ccc(O)c(c5)Oc5cc(O)cc(c5)[C@H](NC3=O)C(=O)N[C@H]4C(=O)N[C@H]3C(=O)N[C@@H]2C(=O)N[C@H](C(=O)O)c2cc(O)cc(O)c2-c2cc3ccc2O)O[C@H](CO)[C@@H](O)[C@@H]1O [Compound 2]
MIC (E. faecium; read-out: Average MIC value, E. faecium VAN^R,TEI^R/VanA, 8 strains): > 8 µg/mL | MIC (E. faecium; read-out: Average MIC value, E. faecium VAN^S, TEI^S, 1 strain): 1 µg/mL (≈ 0.559 µM) | MIC (E. faecium; read-out: MIC value, E.faecium E335, VAN,TEI,LNZ/VanA): > 8 µg/mL | MIC (E. faecium; read-out: MIC value, E.faecium E355, VAN,TEI,LNZ/VanA): > 8 µg/mL | MIC (E. faecium; read-out: MIC value, E.faecium E832, VAN,TEI,LNZ/VanA): > 8 µg/mL | MIC (E. faecium; read-out: MIC value, E.faecium E854, VAN,TEI,LNZ/VanA): > 8 µg/mL | MIC (E. faecium; read-out: MIC value, E.faecium E859, VAN,TEI,LNZ/VanA): > 8 µg/mL | MIC (E. faecium; read-out: MIC value, E.faecium E1114, VAN,TEI,LNZ/VanA): > 8 µg/mL | MIC (E. faecium; read-out: MIC value, E.faecium E1131, VAN,TEI,LNZ/VanA): > 8 µg/mL | MIC (E. faecium; read-out: MIC value, E.faecium E1132, VAN,TEI,LNZ/VanA): > 8 µg/mL | MIC (E. faecium; read-out: MIC value, E.faecium TX0016): 1 µg/mL (≈ 0.559 µM) | MIC (S. epidermidis; read-out: Average MIC value, S. epidermidis mecA, 6 strains): 0.645 µg/mL (≈ 0.361 µM) | MIC (S. epidermidis; read-out: MIC value, S.epidermidis ORI_R1, mecA): 0.5 µg/mL (≈ 0.28 µM) | MIC (S. epidermidis; read-out: MIC value, S.epidermidis ORI_R2, mecA): 0.5 µg/mL (≈ 0.28 µM) | MIC (S. epidermidis; read-out: MIC value, S.epidermidis ORI_R3, mecA): 0.25 µg/mL (≈ 0.14 µM) | MIC (S. epidermidis; read-out: MIC value, S.epidermidis ORI_R4, mecA): 0.5 µg/mL (≈ 0.28 µM) | MIC (S. epidermidis; read-out: MIC value, S.epidermidis TEI_R1, mecA): 0.125 µg/mL (≈ 0.0699 µM) | MIC (S. epidermidis; read-out: MIC value, S.epidermidis TEI_R2, mecA): 2 µg/mL (≈ 1.12 µM) | MIC against a panel of bacteria including MRSA [1]: 0.5 to 1 µM | EC50 (HCoV-229E): > 100 µM | CC50 (VeroE6 cells): > 100 µM | MIC (E. faecalis; read-out: Average MIC value, E. faecalis VAN^R,TEI^R/VanA, 1 strain): > 8 µg/mL | MIC (E. faecalis; read-out: Average MIC value, E. faecalis VAN^S, TEI^S, 2 strains): 1 µg/mL (≈ 0.559 µM) | MIC (E. faecalis; read-out: MIC value, E.faecalis JH2-2): 1 µg/mL (≈ 0.559 µM) | MIC (E. faecalis; read-out: MIC value, E.faecalis OG1RF): 1 µg/mL (≈ 0.559 µM) | MIC (E. faecalis; read-out: MIC value, E.faecalis V583, VAN,TEI/VanA): > 8 µg/mL | MIC (S. aureus; ATCC 29213 / MSSA, read-out: MIC value, S. aureus ATCC29213, MSSA): 0.0625 µg/mL (≈ 0.0349 µM) | MIC (S. aureus; MRSA / USA300, read-out: MIC value, S. aureus USA300, CA-MRSA): 0.25 µg/mL (≈ 0.14 µM) | MIC (S. aureus; MRSA, read-out: Average MIC value, S. aureus CA-MRSA, 1 strain): 0.25 µg/mL (≈ 0.14 µM) | MIC (S. aureus; MRSA, read-out: Average MIC value, S. aureus MRSA, 7 strains): 0.285 µg/mL (≈ 0.159 µM) | MIC (S. aureus; MRSA, read-out: MIC value, S. aureus 73OL, MRSA): 0.25 µg/mL (≈ 0.14 µM) | MIC (S. aureus; MRSA, read-out: MIC value, S. aureus 214OL, MRSA): 0.25 µg/mL (≈ 0.14 µM) | MIC (S. aureus; MRSA, read-out: MIC value, S. aureus 1041OL, MRSA): 0.25 µg/mL (≈ 0.14 µM) | MIC (S. aureus; MRSA, read-out: MIC value, S. aureus A6918, MRSA): 0.5 µg/mL (≈ 0.28 µM) | MIC (S. aureus; MRSA, read-out: MIC value, S. aureus A6919, MRSA): 0.25 µg/mL (≈ 0.14 µM) | MIC (S. aureus; MRSA, read-out: MIC value, S. aureus Mu50, MRSA): 0.25 µg/mL (≈ 0.14 µM) | MIC (S. aureus; MRSA, read-out: MIC value, S. aureus N315, MRSA): 0.25 µg/mL (≈ 0.14 µM) | MIC (S. aureus; MSSA / NEWMAN, read-out: MIC value, S. aureus Newman, MSSA): 0.5 µg/mL (≈ 0.28 µM) | MIC (S. aureus; MSSA, read-out: Average MIC value, S. aureus MSSA, 4 strains): 0.265 µg/mL (≈ 0.148 µM) | MIC (S. aureus; MSSA, read-out: MIC value, S. aureus MSSA476, MSSA): 0.25 µg/mL (≈ 0.14 µM) | MIC (S. aureus; MSSA, read-out: MIC value, S. aureus SA564, MSSA): 0.25 µg/mL (≈ 0.14 µM) | MIC (S.pyogenes; read-out: MIC value, S.pyogenes H232): 0.0625 µg/mL (≈ 0.0349 µM) | MIC (S.pyogenes; read-out: MIC value, S.pyogenes H550): 0.0625 µg/mL (≈ 0.0349 µM) | MIC (S.pyogenes; read-out: MIC value, S.pyogenes H578): 0.0625 µg/mL (≈ 0.0349 µM) | MIC (S. haemolyticus; S. haemolyticus mecA, 6 strains, read-out: Average MIC value): 1.9 µg/mL (≈ 1.06 µM) | MIC (S. haemolyticus; S.haemolyticus DALB_R1, mecA, read-out: MIC value): 4 µg/mL (≈ 2.24 µM) | MIC (S. haemolyticus; S.haemolyticus DALB_R2, mecA, read-out: MIC value): 2 µg/mL (≈ 1.12 µM) | MIC (S. haemolyticus; S.haemolyticus DALB_R3, mecA, read-out: MIC value): 2 µg/mL (≈ 1.12 µM) | MIC (S. haemolyticus; S.haemolyticus DALB_R4, mecA, read-out: MIC value): 2 µg/mL (≈ 1.12 µM) | MIC (S. haemolyticus; S.haemolyticus DALB_R5, mecA, read-out: MIC value): 0.5 µg/mL (≈ 0.28 µM) | MIC (S. haemolyticus; S.haemolyticus ORI_R1, mecA, read-out: MIC value): 1 µg/mL (≈ 0.559 µM) | IC50 [2]: 98 ± 1 µM | CC50 (HEL cells): > 100 µM
